The record followed here is DBAASP.

Values after ≈ are worked out from the molar mass of the structure shown. Values joined by “and” are separate entries in the source; they are usually repeats but may differ in a detail not shown here. Equal entries are not always repeated. Where only a bound is given, the exact number is not on record here.

Among the test systems are Bacillus megaterium Bm11; Candida albicans; Citrobacter freundii; Enterococcus faecium; Escherichia coli ML-35; Escherichia coli; Klebsiella pneumoniae; Micrococcus luteus; Pseudomonas aeruginosa; Staphylococcus aureus; Acinetobacter baumannii; Enterococcus faecalis; Escherichia coli W3110; Serratia marcescens; Streptococcus agalactiae.
Holding throughout (assay): ≥ marks a high value that may be exact or a test limit, other limits are often not marked, values filed in µg/mL are converted to µM
For assay [1], the system named is Pseudomonas aeruginosa ATCC 27853.
The subject of assay [2] is Salmonella enterica subsp. enterica serovar Typhimurium ATCC 14028.
Assay [3] concerns Staphylococcus aureus 710A.
Assay [4] concerns Staphylococcus aureus LT1334.
In assay [5] the test system is Staphylococcus aureus LT1338.
For assay [6], the system named is Staphylococcus epidermidis LT1324.
The subject of assay [7] is Staphylococcus haemolyticus.
Assay [8] concerns Stenotrophomonas maltophilia.
Assay [9] relates to Candida albicans ATCC 90028.
For assay [10], the system named is Cutibacterium acnes ATCC 11828.
Assay [11] deals with Cutibacterium acnes ATCC 15725.
The subject of assay [12] is Cutibacterium acnes ATCC 18380.
Assay [13] relates to Cutibacterium acnes ATCC 29903.
In assay [14] the test system is Cutibacterium acnes ATCC 31766.
The subject of assay [15] is Cutibacterium acnes ATCC 32548.
Assay [16] concerns Cutibacterium acnes ATCC 33257.
Assay [17] deals with Cutibacterium acnes ATCC 50247.
The test system of assay [18] is Escherichia coli ATCC 25726.
Assay [19] deals with Staphylococcus aureus ATCC 25923.
Assay [20] has as its system Pseudomonas aeruginosa PAK.
The test system of assay [21] is Streptococcus mutans UA159.
The subject of assay [22] is Streptococcus sanguinis NY101.
For assay [23], the system named is Streptococcus sobrinus ATCC 33478.
The subject of assay [24] is Escherichia coli O18:K1:H7 Bort.
In assay [25] the test system is Bacillus cereus ATCC 11778.
For assay [26], the system named is Escherichia coli ATCC 25922.
Assay [27] has as its system Listeria monocytogenes ATCC BAA-751.
Assay [28] deals with Pseudomonas aeruginosa ATCC 9027.
Assay [29] concerns Staphylococcus aureus ATCC 29213.
Assay [30] deals with Staphylococcus aureus ATCC 43300.

With `CC[C@H](C)[C@H](NC(=O)[C@@H](NC(=O)[C@H](CCCN=C(N)N)NC(=O)[C@H](C)NC(=O)[C@H](CC(C)C)NC(=O)[C@H](CCCCN)NC(=O)[C@H](CCCN=C(N)N)NC(=O)[C@H](C)NC(=O)[C@H](CC(C)C)NC(=O)[C@H](CCCN=C(N)N)NC(=O)CNC(=O)[C@H](Cc1ccccc1)NC(=O)[C@H](CCCCN)NC(=O)[C@H](CO)NC(=O)[C@H](CC(C)C)NC(=O)[C@H](CC(C)C)NC(=O)CN)C(C)C)C(=O)N1CCC[C@H]1C(=O)N[C@@H](CCCCN)C(=O)N[C@H](C(N)=O)C(C)C` [GLLSKFGRLARKLARVIPKV], the MIC – broadly, the least concentration at which growth counts as inhibited – is 2 µM (≈ 4.44 µg/mL) with Bacillus megaterium Bm11; > 4 µM in the assay on Candida albicans; 2 µM (≈ 4.44 µg/mL) in the assay on Citrobacter freundii; 1.41 µM (≈ 3.14 µg/mL) against Enterococcus faecium; 1 µM (≈ 2.22 µg/mL) in the assay on Escherichia coli ML-35; 1.41 µM (≈ 3.14 µg/mL) against Escherichia coli. The MIC turned out to be 1 µM (≈ 2.22 µg/mL) against Klebsiella pneumoniae; 1 µM (≈ 2.22 µg/mL) against Micrococcus luteus; 4 µM (≈ 8.89 µg/mL) in [1]; 2 µM (≈ 4.44 µg/mL) in the assay with Pseudomonas aeruginosa; 5.66 µM (≈ 12.6 µg/mL) in assay [2]; 5.66 µM (≈ 12.6 µg/mL) in assay [3]. The MIC is 3 µM (≈ 6.67 µg/mL) in [4]; 4 µM (≈ 8.89 µg/mL) in assay [5]; 2 µM and 2.45 µM in the assay on Staphylococcus aureus; 1.5 µM (≈ 3.33 µg/mL) in assay [6]; 1.5 µM (≈ 3.33 µg/mL) in assay [7]; 1.22 µM (≈ 2.72 µg/mL) in assay [8].

In the case of `CC[C@H](C)[C@H](NC(=O)[C@H](CCCCN)NC(=O)[C@H](CC(C)C)NC(=O)[C@H](CC(C)C)NC(=O)[C@@H]1CCCN1C(=O)[C@H](CCCCN)NC(=O)[C@H](CC(C)C)NC(=O)[C@H](CC(C)C)NC(=O)CN)C(=O)N[C@@H](C)C(=O)N[C@@H](C)C(=O)N[C@@H](CCCCN)C(=O)N[C@H](C(=O)NCC(=O)N[C@@H](CO)C(=O)N[C@@H](CC(N)=O)C(=O)N[C@@H](CC(C)C)C(=O)N[C@@H](CC(C)C)C(N)=O)C(C)C` [GLLKPLLKIAAKVGSNLL], the MIC against Acinetobacter baumannii is 2.23 µM (≈ 4.11 µg/mL); in assay [9], 25 µM (≈ 46.2 µg/mL); in [10] it was 3 µM (≈ 5.54 µg/mL); in assay [11], 6 µM (≈ 11.1 µg/mL); in [12], 25 µM (≈ 46.2 µg/mL); in [13] it was 25 µM (≈ 46.2 µg/mL). Besides, the MIC in assay [14] worked out at 12.5 µM (≈ 23.1 µg/mL); in [15] it was 6 µM (≈ 11.1 µg/mL); in [16], 6 µM (≈ 11.1 µg/mL); in [17] it was 12.5 µM (≈ 23.1 µg/mL); in [18] it was 12.5 µM (≈ 23.1 µg/mL); in assay [19], 6 µM (≈ 11.1 µg/mL).

As to `CC[C@H](C)[C@H](NC(=O)[C@H](Cc1ccccc1)NC(=O)[C@H](Cc1cnc[nH]1)NC(=O)[C@H](CCCCN)NC(=O)[C@@H](NC(=O)[C@H](Cc1ccccc1)NC(=O)[C@@H]1CCCN1C(=O)[C@H](CO)NC(=O)[C@@H]1CCCN1C(=O)[C@H](CO)NC(=O)[C@@H]1CCCN1C(=O)[C@H](Cc1ccccc1)NC(=O)[C@H](Cc1cnc[nH]1)NC(=O)[C@H](CC(C)C)NC(=O)[C@H](Cc1cnc[nH]1)NC(=O)[C@H](Cc1ccccc1)NC(=O)[C@H](Cc1cnc[nH]1)NC(=O)[C@@H](N)Cc1ccccc1)[C@@H](C)CC)C(=O)N[C@@H](Cc1cnc[nH]1)C(=O)N[C@@H](CCCN=C(N)N)C(=O)N[C@@H](Cc1ccccc1)C(N)=O` [FHFHLHFPSPSPFIKHFIHRF], the MIC against Enterococcus faecalis is ≥ 93.4 µM; against Escherichia coli W3110 it was 23.4 µM (≈ 62.5 µg/mL); in [20], ≥ 46.7 µM; against Staphylococcus aureus, > 187 µM; in [21] it was 12 µM (≈ 32 µg/mL); in [22], ≥ 46.7 µM. Moreover, the MIC in [23] was ≥ 46.7 µM.

As for `CC[C@H](C)[C@H](N)C(=O)N[C@@H](CC(C)C)C(=O)N[C@@H](CCCN=C(N)N)C(=O)N[C@@H](C)C(=O)N[C@@H](Cc1c[nH]c2ccccc12)C(=O)N[C@@H](CCCCN)C(=O)N[C@@H](CCCCN)C(=O)N[C@@H](Cc1ccc(O)cc1)C(=O)NCC(=O)N1CCC[C@H]1C(=O)N[C@H](C(=O)N[C@H](C(=O)N[C@H](C(=O)N1CCC[C@H]1C(=O)N[C@H](C(=O)N[C@H](C(=O)N[C@@H](CCCN=C(N)N)C(=O)N[C@H](C(N)=O)[C@@H](C)CC)[C@@H](C)CC)[C@@H](C)CC)C(C)C)[C@@H](C)CC)[C@@H](C)CC` [ILRAWKKYGPIIVPIIRI], the MIC with Enterococcus faecium came out at 8 µM (≈ 17.2 µg/mL); in [24] it was 2 µM (≈ 4.3 µg/mL); in assay [1], 8 µM (≈ 17.2 µg/mL); in the assay on Serratia marcescens, 16 µM (≈ 34.4 µg/mL); in the assay on Staphylococcus aureus, 8 µM (≈ 17.2 µg/mL); in the assay with Streptococcus agalactiae, 4 µM (≈ 8.6 µg/mL).

Take `CC[C@H](C)[C@H](NC(=O)CNC(=O)[C@H](CCCCN)NC(=O)[C@@H](NC(=O)[C@H](CC(C)C)NC(=O)[C@H](CO)NC(=O)CNC(=O)[C@H](CC(C)C)NC(=O)CNC(=O)[C@H](C)NC(=O)[C@H](CCCCN)NC(=O)[C@H](Cc1ccccc1)NC(=O)[C@@H](NC(=O)[C@H](CCC(=O)O)NC(=O)[C@H](CCCCN)NC(=O)[C@H](CC(C)C)NC(=O)CN)[C@@H](C)CC)C(C)C)C(=O)N[C@@H](C)C(=O)N[C@@H](C)C(=O)N[C@@H](Cc1cnc[nH]1)C(=O)N[C@H](C(=O)N[C@@H](C)C(=O)N[C@@H](CO)C(=O)O)C(C)C` [GLKEIFKAGLGSLVKGIAAHVAS]: the MIC in assay [25] was ≥ 250 µM; in [26], 15.2 µM (≈ 34.5 µg/mL); in [27], ≥ 125 µM; in assay [28] it was 31.3 µM (≈ 70.9 µg/mL); in assay [2], 62.5 µM (≈ 142 µg/mL); in assay [19] it was 250 µM (≈ 567 µg/mL). Besides, the MIC in [29] and in assay [30] was > 250 µM throughout.
